Laboratory results: PubChem BioAssay (NCI)
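Exposure lasted 48 hours, with cells grown in 96-well plates and compounds tested at five concentrations. Definition used: TGI = concentration required for complete inhibition of growth.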

What was measured:
Assay in all cases: NCI tumour cell line growth inhibition, 48 h
[1] = tested on: 786-0 renal
[2] = tested on: A498 renal
[3] = tested on: A549 NSCLC
[4] = tested on: ACHN renal
[5] = tested on: BT-549 breast
[6] = tested on: CAKI-1 renal
[7] = tested on: CCRF-CEM leukemia
[8] = tested on: COLO 205 colon
[9] = tested on: DU-145 prostate
[10] = tested on: EKVX NSCLC
[11] = tested on: HCC-2998 colon
[12] = tested on: HCT-116 colon
[13] = tested on: HCT-15 colon
[14] = tested on: HL-60(TB) leukemia
[15] = tested on: HOP-62 NSCLC
[16] = tested on: HOP-92 NSCLC
[17] = tested on: HS 578T breast
[18] = tested on: HT29 colon
[19] = tested on: IGROV1 ovarian
[20] = tested on: K-562 leukemia
[21] = tested on: KM12 colon
[22] = tested on: LOX IMVI melanoma
[23] = tested on: M14 melanoma
[24] = tested on: MALME-3M melanoma
[25] = tested on: MCF7 breast
[26] = tested on: MDA-MB-231 breast
[27] = tested on: MDA-MB-435
[28] = tested on: MDA-N
[29] = tested on: MOLT-4 leukemia
[30] = tested on: NCI-H226 lung
[31] = tested on: NCI-H23 lung
[32] = tested on: NCI-H460 lung
[33] = tested on: NCI-H522 lung
[34] = tested on: NCI/ADR-RES ovarian
[35] = tested on: OVCAR-3 ovarian
[36] = tested on: OVCAR-4 ovarian
[37] = tested on: OVCAR-5 ovarian
[38] = tested on: OVCAR-8 ovarian
[39] = tested on: PC-3 prostate
[40] = tested on: RPMI-8226 leukemia
[41] = tested on: RXF 393 renal
[42] = tested on: SF-268 CNS
[43] = tested on: SF-295 CNS
[44] = tested on: SF-539 CNS
[45] = tested on: SK-MEL-2 melanoma
[46] = tested on: SK-MEL-28 melanoma
[47] = tested on: SK-MEL-5 melanoma
[48] = tested on: SK-OV-3 ovarian
[49] = tested on: SN12C renal
[50] = tested on: SNB-19 CNS
[51] = tested on: SNB-75 CNS
[52] = tested on: SR leukemia
[53] = tested on: SW-620 colon
[54] = tested on: T-47D breast
[55] = tested on: TK-10 renal
[56] = tested on: U251 CNS
[57] = tested on: UACC-257 melanoma
[58] = tested on: UACC-62 melanoma
[59] = tested on: UO-31 renal

C[n+]1cccc(/C=C/c2ccc3cccc(O)c3n2)c1
TGI [1]: > 100 µM
TGI [2]: > 100 µM
TGI [3]: > 100 µM
TGI [4]: > 100 µM
TGI [5]: > 100 µM
TGI [6]: > 100 µM
TGI [7]: > 100 µM
TGI [8]: > 100 µM
TGI [9]: > 100 µM
TGI [10]: > 100 µM
TGI [11]: > 100 µM
TGI [12]: > 100 µM
TGI [13]: > 100 µM
TGI [14]: 82.3 µM
TGI [15]: > 100 µM
TGI [16]: > 100 µM
TGI [17]: > 100 µM
TGI [18]: > 100 µM
TGI [19]: > 100 µM
TGI [20]: > 100 µM
TGI [21]: > 100 µM
TGI [22]: > 100 µM
TGI [23]: > 100 µM
TGI [24]: 93.5 µM
TGI [25]: > 100 µM
TGI [26]: > 100 µM
TGI [27]: > 100 µM
TGI [28]: > 100 µM
TGI [29]: > 100 µM
TGI [30]: > 100 µM
TGI [31]: > 100 µM
TGI [32]: > 100 µM
TGI [33]: 92.6 µM
TGI [34]: > 100 µM
TGI [35]: > 100 µM
TGI [36]: > 100 µM
TGI [37]: > 100 µM
TGI [38]: > 100 µM
TGI [39]: > 100 µM
TGI [40]: > 100 µM
TGI [41]: > 100 µM
TGI [42]: > 100 µM
TGI [43]: > 100 µM
TGI [44]: > 100 µM
TGI [45]: > 100 µM
TGI [46]: > 100 µM
TGI [47]: > 100 µM
TGI [48]: > 100 µM
TGI [49]: > 100 µM
TGI [50]: > 100 µM
TGI [51]: > 100 µM
TGI [52]: > 100 µM
TGI [53]: > 100 µM
TGI [54]: > 100 µM
TGI [55]: > 100 µM
TGI [56]: > 100 µM
TGI [57]: > 100 µM
TGI [58]: > 100 µM
TGI [59]: > 100 µM

COc1ccc2nc3cc([N+](=O)[O-])ccc3c(NNc3ccc(Cl)cc3)c2c1
TGI [1]: 53.6 µM
TGI [2]: 0.221 µM
TGI [3]: > 85 µM
TGI [4]: > 82.2 µM
TGI [5]: > 92.1 µM
TGI [6]: 2.26 µM
TGI [7]: 80.1 µM
TGI [8]: 60.8 µM
TGI [9]: > 96.5 µM
TGI [10]: 99 µM
TGI [11]: 60.6 µM
TGI [12]: > 55.7 µM
TGI [13]: > 100 µM
TGI [14]: > 73.8 µM
TGI [15]: > 78.8 µM
TGI [16]: 57.9 µM
TGI [17]: > 100 µM
TGI [18]: 43.5 µM
TGI [19]: 45.1 µM
TGI [20]: > 68.3 µM
TGI [21]: > 100 µM
TGI [22]: > 100 µM
TGI [23]: > 92.5 µM
TGI [24]: > 100 µM
TGI [25]: > 100 µM
TGI [26]: > 73.1 µM
TGI [27]: > 100 µM
TGI [28]: > 100 µM
TGI [29]: > 92.4 µM
TGI [30]: 26 µM
TGI [31]: > 100 µM
TGI [32]: > 59 µM
TGI [33]: 83.7 µM
TGI [34]: > 100 µM
TGI [35]: > 20.5 µM
TGI [36]: > 100 µM
TGI [37]: > 100 µM
TGI [38]: 65.1 µM
TGI [39]: > 77.5 µM
TGI [40]: 78.7 µM
TGI [41]: > 83.4 µM
TGI [42]: > 100 µM
TGI [43]: > 100 µM
TGI [44]: 97.5 µM
TGI [45]: 59.4 µM
TGI [46]: > 100 µM
TGI [47]: 36.2 µM
TGI [48]: > 100 µM
TGI [49]: 98 µM
TGI [50]: > 100 µM
TGI [51]: > 100 µM
TGI [52]: 37.7 µM
TGI [53]: > 76.3 µM
TGI [54]: > 100 µM
TGI [55]: 5.16 µM
TGI [56]: 74.6 µM
TGI [57]: > 100 µM
TGI [58]: > 65.9 µM
TGI [59]: > 100 µM
